Experimental findings from US10080743B2, “Isoxazole derivatives as FXR agonists and methods of use thereof” (Enanta Pharmaceuticals, Inc., priority 2016, dated 2018) are described below.

In this assay the target is T1, human FXR (NR1H4) (Homo sapiens, UniProt Q96RI1).
T1 construct: host or cells: CHO (Chinese hamster ovary) cells
T1 sequence (Q96RI1 1-486): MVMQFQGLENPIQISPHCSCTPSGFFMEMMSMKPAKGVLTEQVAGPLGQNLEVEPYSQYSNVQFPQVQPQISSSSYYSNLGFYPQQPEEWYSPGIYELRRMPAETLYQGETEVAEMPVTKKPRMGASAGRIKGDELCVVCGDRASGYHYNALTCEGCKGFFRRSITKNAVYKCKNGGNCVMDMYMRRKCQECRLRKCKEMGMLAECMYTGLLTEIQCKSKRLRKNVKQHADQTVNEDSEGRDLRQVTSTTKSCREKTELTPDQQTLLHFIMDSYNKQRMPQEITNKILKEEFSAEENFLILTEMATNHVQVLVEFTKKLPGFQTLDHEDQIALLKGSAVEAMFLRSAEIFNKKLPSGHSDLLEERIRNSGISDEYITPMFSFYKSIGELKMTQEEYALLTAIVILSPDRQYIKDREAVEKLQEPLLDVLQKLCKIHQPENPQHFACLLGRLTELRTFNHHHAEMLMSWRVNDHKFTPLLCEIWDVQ
As to the kind of experiment: Human FXR (NR1H4) Assay (Gal4 promoter driven luciferase reporter transactivation, Indigo Bioscience kit IB00601). The class given is cell-based. As to conditions: for EC50: Human FXR (NR1H4) reporter assay, CHO cells expressing human NR1H4, potency ranges; for Efficacy (%): efficacy normalized to CDCA set as 100%. An excerpt: Human FXR (NR1H4) Assay Determination of a ligand mediated Gal4 promoter driven transactivation to quantify ligand binding mediated activation of FXR. FXR Reporter Assay kit purchased from Indigo Bioscience (Catalogue number: IB00601) to determine the potency and efficacy of compound developed by Enanta that can induce FXR activation. The principle application of this reporter assay system is to quantify functional activity of human FXR. The assay utilizes non-human mammalian cells, CHO (Chinese hamster ovary) cells engineered to express human NR1H4 protein (referred to as FXR). Reporter cells also incorporate the cDNA encoding beetle luciferase which catalyzes the substrates and yields photon emission. Luminescence intensity of the reaction is quantified using a plate-reading luminometer, Envision. Reporter Cells include the luciferase reporter gene functionally linked to an FXR responsive promoter. Thus, quantifying changes in luciferase expression in the treated reporter cells provides a sensitive surrogate measure of the changes in FXR activity. […] The assay is according to the manufacturer's instructions. […] Retrieve Reporter Cells from −80° C. storage. Perform a rapid thaw of the frozen cells by transferring a 10 ml volume of 37° C. cell recovery medium into the tube of frozen cells. Recap the tube of Reporter Cells and immediately place it in a 37° C. water bath for 5-10 minutes. Retrieve the tube of Reporter Cell Suspension from the water bath. Sanitize the outside surface of the tube with a 70% alcohol swab, and then transfer it into the cell culture hood. Dispense 90 μl of cell suspension into each well of the 96-well Assay Plate. Transfer the plate into 37° C. incubator, allowing the cells adherent to the bottom of the well. Dilute compounds in Dilution Plate (DP), and administrate to cells at Assay Plate (AP). DMSO content of the samples was kept at 0.2%. Cells were incubated for additional 22 hours before luciferase activities were measured. Thirty minutes before intending to quantify FXR activity, remove Detection Substrate and Detection Buffer from the refrigerator and place them in a low-light area so that they may equilibrate to room temperature. Remove the plate's lid and discard all media contents by ejecting it into an appropriate waste container. Gently tap the inverted plate onto a clean absorbent paper towel to remove residual droplets. Cells will remain tightly adhered to well bottoms. Add 100 μl of luciferase detection reagent to each well of the assay plate. Allow the assay plate to rest at room temperature for at least 5 minutes following the addition of LDR. Set the instrument (Envision) to perform a single 5 second “plate shake” prior to reading the first assay well. Read time may be 0.5 second (500 mSec) per well.
(A reporter such as luciferase makes a cellular process visible.)

The EC50 is the midpoint of the concentration-response curve. A higher EC50 goes with weaker potency. For `CC(C)c1onc(-c2c(Cl)cccc2Cl)c1COc1ccc(-c2ccc3c(NC(=O)NS(=O)(=O)c4ccccc4)cccc3c2)cc1` [Compound 16], the concentration for a half-maximal effect (EC50) was 100 to 1000 nM and the “Efficacy (%)” value is 117%.

Take `CC(C)c1onc(-c2c(Cl)cccc2Cl)c1COc1ccc(-c2ccc3c(C(=O)O)cccc3c2)cc1` [Compound (1), reference compound]: the EC50 was 100 to 1000 nM and the “Efficacy (%)” value worked out at 220%.

For the compound `CC(C)c1onc(-c2c(Cl)cccc2Cl)c1COc1ccc(-c2ccc3c(NC(=O)NS(=O)(=O)C4CC4)cccc3c2)cc1` [Compound 11], the half-maximal effective concentration (EC50) was 100 to 1000 nM and the “Efficacy (%)” value is 1.2%.

Turning to `CC(C)c1onc(-c2c(Cl)cccc2Cl)c1COc1ccc(-c2ccc3c(C(=O)NS(=O)(=O)N(C)C)cccc3c2)cc1` [Compound 90], the concentration giving a half-maximal response (EC50) was in the range of 100 to 1000 nM and the “Efficacy (%)” value is recorded as 1.3%.
